Measured values: US20210047304A1, “Bromodomain Inhibitors” (AbbVie Inc., priority 2016, published 2021)

Molecular target: BRD4 (BDI_K57-E168) (Homo sapiens, UniProt O60885)
Test: TR-FRET bromodomain binding assay, BRD4 BDI
Experimental: A time-resolved fluorescence resonance energy transfer (TR-FRET) assay was used to determine the affinities of compounds of the Examples listed in Table 1 for each bromodomain of BRD4. […] An Alexa647-labeled BET-inhibitor was used as the fluorescent probe in the assay.
(§1) Compound dilution series were prepared in DMSO via an approximately 3-fold serial dilution. Compound dilutions were added directly into white, low-volume assay plates (Perkin Elmer Proxiplate 384 Plus #6008280) using a Labcyte Echo in conjunction with Labcyte Access and Thermo Multidrop CombinL robotics. Compounds were then suspended in eight microliters (μL) of assay buffer (20 mM Sodium Phosphate, pH 6.0, 50 mM NaCl, 1 mM Ethylenediaminetetraacetic acid disodium salt dihydrate, 0.01% Triton X-100, 1 mM DL-Dithiothreitol) containing His-tagged bromodomain, Europium-conjugated anti-His antibody (Invitrogen PV5596) and Alexa-647-conjugated probe.
After a one-hour equilibration at room temperature, TR-FRET ratios were determined using an Envision multilabel plate reader (Ex 340, Em 495/520).
TR-FRET data were normalized to the means of 24 no-compound controls (“high”) and 8 controls containing 1 μM un-labeled probe (“low”). Percent inhibition was plotted as a function of compound concentration and the data were fit with the 4 parameter logistic equation to obtain IC50s. Inhibition constants (Ki) were calculated from the IC50s, probe Kd and probe concentration.
Compound dilution series for Compounds A-E were prepared in DMSO via an approximately 3-fold serial dilution from 0.47 mM to 7.8 nM.
as §1, with “Compound” for “Compound dilution series were prepared in DMSO via an approximately 3-fold serial dilution. Compound”
TR-FRET data were normalized to the means of 24 no-compound controls (“high”) and 8 controls containing 1 μM un-labeled probe (“low”). Percent inhibition was plotted as a function of compound concentration and the data were fit with the 4 parameter logistic equation to obtain IC50s. Inhibition constants (Ki) were calculated from the IC50s, probe Kd and probe concentration. Typical Z′ values were between 0.65 and 0.75. The minimum significant ratio was determined to evaluate assay reproducibility (Eastwood et al., (2006) J Biomol Screen, 11: 253-261). The MSR was determined to be 2.03 for BDI and 1.93 for BDII, and a moving MSR (last six run MSR overtime) for both BDI and BDII was typically <3.

| Ki | Structure (SMILES) |
| --- | --- |
| 1090 nM | COC(=O)N[C@H]1CC[C@H](Oc2cc(=O)n(C)cc2-c2cc(C(C)(C)O)ccc2Oc2c(C)cc(C(C)(C)O)cc2C)CC1 [Example 20, methyl {trans-4-[(5-{5-(2-hydroxypropan-2-yl)-2-[4-(2-hydroxypropan-2-yl)-2,6-dimethylphenoxy]phenyl}-1-methyl-2-oxo-1,2-dihydropyridin-4-yl)oxy]cyclohexyl}carbamate] |
| 2870 nM | CC(=O)NC[C@@H]1CC[C@H](Oc2cc(=O)n(C)cc2-c2cc(C(C)(C)O)ccc2Oc2c(C)cc(F)cc2C)[C@H]1C [Example 22, N-{[(1R,2S,3S)-3-({5-[2-(4-fluoro-2,6-dimethylphenoxy)-5-(2-hydroxypropan-2-yl)phenyl]-1-methyl-2-oxo-1,2-dihydropyridin-4-yl}oxy)-2-methylcyclopentyl]methyl}acetamide] |
| 3630 nM | Cc1cc(F)cc(C)c1Oc1ccc(C(C)(C)O)cc1-c1cn(C)c(=O)cc1NC1CCC(C)(O)CC1 (stereo not drawn) [Example 23, 5-[2-(4-fluoro-2,6-dimethylphenoxy)-5-(2-hydroxypropan-2-yl)phenyl]-4-[(trans-4-hydroxy-4-methylcyclohexyl)amino]-1-methylpyridin-2(1H)-one] |
| 2860 nM | Cc1cc(F)cc(C)c1Oc1ccc(C(C)(C)O)cc1-c1cn(C)c(=O)cc1O[C@H]1CC[C@H](N2CCCC2=O)CC1 [Example 24, 5-[2-(4-fluoro-2,6-dimethylphenoxy)-5-(2-hydroxypropan-2-yl)phenyl]-1-methyl-4-{[trans-4-(2-oxopyrrolidin-1-yl)cyclohexyl]oxy}pyridin-2(1H)-one] |
| 2220 nM | COC(=O)N[C@H]1CC[C@H](Oc2cc(=O)n(C)cc2-c2cc(C(C)(C)O)cnc2Oc2c(C)cc(C(C)(C)O)cc2C)CC1 [Example 25, methyl [trans-4-({5′-(2-hydroxypropan-2-yl)-2′-[4-(2-hydroxypropan-2-yl)-2,6-dimethylphenoxy]-1-methyl-6-oxo[1,6-dihydro[3,3′-bipyridine]]-4-yl}oxy)cyclohexyl]carbamate] |
| 8850 nM | COCC(=O)N1CCC(Oc2cc(=O)n(C)cc2-c2cc(C(C)(C)O)cnc2Oc2c(C)cc(F)cc2C)CC1 [Example 26, 2′-(4-fluoro-2,6-dimethylphenoxy)-5′-(2-hydroxypropan-2-yl)-4-{[1-(methoxyacetyl)piperidin-4-yl]oxy}-1-methyl[3,3′-bipyridin]-6(1H)-one] |
| 1900 nM | Cc1cccc(C)c1Oc1ccc(C(C)(C)O)cc1-c1cn(C)c(=O)cc1O[C@H]1CC[C@H](N2CCCC2=O)CC1 [Example 27, 5-[2-(2,6-dimethylphenoxy)-5-(2-hydroxypropan-2-yl)phenyl]-1-methyl-4-{[trans-4-(2-oxopyrrolidin-1-yl)cyclohexyl]oxy}pyridin-2(1H)-one] |
| 1520 nM | C=CC(=O)N[C@H]1CC[C@H](Oc2cc(=O)n(C)cc2-c2cc(C(C)(C)O)ccc2Oc2c(C)cc(F)cc2C)CC1 [Example 28, N-[trans-4-({5-[2-(4-fluoro-2,6-dimethylphenoxy)-5-(2-hydroxypropan-2-yl)phenyl]-1-methyl-2-oxo-1,2-dihydropyridin-4-yl}oxy)cyclohexyl]prop-2-enamide] |
| 2220 nM | Cc1cc(F)cc(C)c1Oc1ccc(C(C)(C)O)cc1-c1cn(C)c(=O)cc1O[C@H]1CC[C@H](N2CCCCC2=O)CC1 [Example 29, 5-[2-(4-fluoro-2,6-dimethylphenoxy)-5-(2-hydroxypropan-2-yl)phenyl]-1-methyl-4-{[trans-4-(2-oxopiperidin-1-yl)cyclohexyl]oxy}pyridin-2(1H)-one] |
| 3300 nM | Cc1cc(F)cc(C)c1Oc1ccc(C(C)(C)O)cc1-c1cn(C)c(=O)cc1O[C@H]1CC[C@H](N2CC(C)(C)C2=O)CC1 [Example 30, 4-{[trans-4-(3,3-dimethyl-2-oxoazetidin-1-yl)cyclohexyl]oxy}-5-[2-(4-fluoro-2,6-dimethylphenoxy)-5-(2-hydroxypropan-2-yl)phenyl]-1-methylpyridin-2(1H)-one] |
| 2410 nM | Cc1cc(F)cc(C)c1Oc1ccc(C(C)(C)O)cc1-c1cn(C)c(=O)cc1O[C@H]1CC[C@H](N2CCCNC2=O)CC1 [Example 31, 1-[trans-4-({5-[2-(4-fluoro-2,6-dimethylphenoxy)-5-(2-hydroxypropan-2-yl)phenyl]-1-methyl-2-oxo-1,2-dihydropyridin-4-yl}oxy)cyclohexyl]tetrahydropyrimidin-2(1H)-one] |
| 1010 nM | CC(=O)NC1(C)CCC(Oc2cc(=O)n(C)cc2-c2cc(C(C)(C)O)ccc2Oc2c(C)cc(F)cc2C)CC1 (stereo not drawn) [Example 32, N-[trans-4-({5-[2-(4-fluoro-2,6-dimethylphenoxy)-5-(2-hydroxypropan-2-yl)phenyl]-1-methyl-2-oxo-1,2-dihydropyridin-4-yl}oxy)-1-methylcyclohexyl]acetamide] |
| > 13000 nM | CCc1c(-c2cc(C(C)(C)O)ccc2Oc2c(C)cc(F)cc2C)c(O[C@H]2CC[C@H](N3CCCC3=O)CC2)cc(=O)n1C [Example 33, 6-ethyl-5-[2-(4-fluoro-2,6-dimethylphenoxy)-5-(2-hydroxypropan-2-yl)phenyl]-1-methyl-4-{[trans-4-(2-oxopyrrolidin-1-yl)cyclohexyl]oxy}pyridin-2(1H)-one] |
| 890 nM | Cc1cc(F)cc(C)c1Oc1ccc(C(C)(C)O)cc1-c1cn(C)c(=O)cc1OC1CCC(C)(N2CCCC2=O)CC1 (stereo not drawn) [Example 34, 5-[2-(4-fluoro-2,6-dimethylphenoxy)-5-(2-hydroxypropan-2-yl)phenyl]-1-methyl-4-{[trans-4-methyl-4-(2-oxopyrrolidin-1-yl)cyclohexyl]oxy}pyridin-2(1H)-one] |
| 1810 nM | Cc1cc(F)cc(C)c1Oc1ccc(C(C)(C)O)cc1-c1cn(C)c(=O)cc1O[C@H]1CC[C@H](N2CCNC2=O)CC1 [Example 35, 5-[2-(4-fluoro-2,6-dimethylphenoxy)-5-(2-hydroxypropan-2-yl)phenyl]-1-methyl-4-{[trans-4-(2-oxoimidazolidin-1-yl)cyclohexyl]oxy}pyridin-2(1H)-one] |
| 5790 nM | C=CCCCC(=O)N[C@H]1CC[C@H](Oc2cc(=O)n(C)cc2-c2cc(C(C)(C)O)ccc2Oc2c(C)cc(F)cc2C)CC1 [Example 36, N-[trans-4-({5-[2-(4-fluoro-2,6-dimethylphenoxy)-5-(2-hydroxypropan-2-yl)phenyl]-1-methyl-2-oxo-1,2-dihydropyridin-4-yl}oxy)cyclohexyl]hex-5-enamide] |
| 2510 nM | Cc1cc(F)cc(C)c1Oc1ccc(C(C)(C)O)cc1-c1cn(C)c(=O)cc1O[C@H]1CC[C@H](N2CCCCCC2=O)CC1 [Example 37, 1-[trans-4-({5-[2-(4-fluoro-2,6-dimethylphenoxy)-5-(2-hydroxypropan-2-yl)phenyl]-1-methyl-2-oxo-1,2-dihydropyridin-4-yl}oxy)cyclohexyl]azepan-2-one] |
| 2500 nM | Cc1cc(F)cc(C)c1Oc1ccc(C(C)(C)O)cc1-c1cn(C)c(=O)cc1O[C@H]1CC[C@H](N2CCOC2=O)CC1 [Example 38, 5-[2-(4-fluoro-2,6-dimethylphenoxy)-5-(2-hydroxypropan-2-yl)phenyl]-1-methyl-4-{[trans-4-(2-oxo-1,3-oxazolidin-3-yl)cyclohexyl]oxy}pyridin-2(1H)-one] |
| 2250 nM | Cc1cc(F)cc(C)c1Oc1ccc(C(C)(C)O)cc1-c1cn(C)c(=O)cc1O[C@H]1CC[C@H](N2CCCOC2=O)CC1 [Example 39, 3-[trans-4-({5-[2-(4-fluoro-2,6-dimethylphenoxy)-5-(2-hydroxypropan-2-yl)phenyl]-1-methyl-2-oxo-1,2-dihydropyridin-4-yl}oxy)cyclohexyl]-1,3-oxazinan-2-one] |
| 2030 nM | Cc1cc(F)cc(C)c1Oc1ccc(C(C)(C)O)cc1-c1cn(C)c(=O)cc1O[C@H]1CC[C@H](N2CCOCC2=O)CC1 [Example 40, 4-[trans-4-({5-[2-(4-fluoro-2,6-dimethylphenoxy)-5-(2-hydroxypropan-2-yl)phenyl]-1-methyl-2-oxo-1,2-dihydropyridin-4-yl}oxy)cyclohexyl]morpholin-3-one] |
| 2480 nM | Cc1cc(F)cc(C)c1Oc1ccc(C(C)(C)O)cc1-c1cn(C)c(=O)cc1O[C@H]1CC[C@H](N2CCCN(C)C2=O)CC1 [Example 41, 1-[trans-4-({5-[2-(4-fluoro-2,6-dimethylphenoxy)-5-(2-hydroxypropan-2-yl)phenyl]-1-methyl-2-oxo-1,2-dihydropyridin-4-yl}oxy)cyclohexyl]-3-methyltetrahydropyrimidin-2(1H)-one] |
